Test results from the NIST ThermoML archive (doi:10.1016/j.jct.2018.10.027).

Experiment: molar heat capacity at constant pressure; mn = molality of the nth substance listed, in mol/kg
Settings: 100 kPa, Liquid, Large sample (1 g) DSC

[Cl-].[Na+] [sodium chloride] + O
molar heat capacity at constant pressure [J/K/mol]
Settings | m1 = 0.2038 | m1 = 0.3971 | m1 = 1.032
278.15 K | 75.59 | 75.32 | 74.79
283.15 K | 75.42 | 75.21 | 74.42
288.15 K | 75.27 | 75.07 | 74.37
293.15 K | 75.25 | 74.95 | 74.28
298.15 K | 75.23 | 74.91 | 74.26
303.15 K | 75.22 | 74.9 | 74.22
308.15 K | 75.2 | 74.87 | 74.21
313.15 K | 75.18 | 74.87 | 74.2
318.15 K | 75.19 | 74.88 | 74.21
323.15 K | 75.2 | 74.96 | 74.26
328.15 K | 75.21 | 74.99 | 74.27
333.15 K | 75.25 | 75.03 | 74.28
338.15 K | 75.27 | 75.11 | 74.32
343.15 K | 75.38 | 75.21 | 74.34
348.15 K | 75.47 | 75.26 | 74.45
